Source: US20250302981A1, “NOVEL USE OF ANTICANCER AGENT PRODRUG CONJUGATE” (UNIVERSITY OF ULSAN FOUNDATION FOR INDUSTRY COOPERATION, priority 2020, published 2025)
*1 amine or outer side, *2 acyl side, *3 side chain or, on linkers, in order; H or OH if unused. Where a SMILES comes first, the peptide text is derived from it. [ ]: non-standard residue; d: D form. The star is where a group is joined. Doxorubicin(3'-N) = COc1cccc2c1C(=O)c1c(O)c3c(c(O)c1C2=O)C[C@@](O)(C(=O)CO)C[C@@H]3O[C@H]1C[C@H](N*)[C@H](O)[C@H](C)O1; Hexanoyl(6-maleimido) = O=C1C=CC(=O)N1CCCCCC(=O)*; PABC = O=C(OCc1ccc(N[*:1])cc1)[*:2]

Experiments:
[1] = Pharmacokinetic analysis in cynomolgus monkeys; format: in vivo; details: intravenous, equivalent to 1 mg/kg doxorubicin
Protocol: Blood samples were collected at 15, 30, 45, 60, and 90 min intervals, and then again at 2, 3, 4, 6, 8, 12, 24, 48, 72, 96, 120, 144, and 168 h. The blood samples were stabilized with sodium citrate and then cryocentrifuged at 2000×g for 15 min to obtain plasma. 200 μl of the plasma sample was added to a 96-well black microplate and the fluorescence of doxorubicin was measured at 485/590 nm. The reference was fresh plasma and the fluorescence was measured in the same manner.

[2] = target: T1, serum albumin in human blood (human plasma sample) (Homo sapiens, UniProt P02768); experiment: Conjugate binding with serum albumin in human plasma, HPLC analysis
T1 construct: from tissue; host or cells: human plasma
Protocol: The conjugation binding of maleimide-KGDEVD-PABC-doxorubicin with HSA was completed in 3 min. However, when plasma was pre-incubated with 4-maleimidobutyric acid which has a thiol-bound maleimide functional group, prior to incubation with maleimide-KGDEVD-PABC-doxorubicin no, binding of maleimide-KGDEVD-PABC-doxorubicin to plasma was observed even after 1 h as in the previous experiment conducted with serum.

[3] = system: tumor cell lines with wild-type PTEN protein genotype; experiment: Concentration-dependent cytotoxicity by MTT analysis; format: cell-based; details: PTEN wild-type cells, up to 100 μM
[4] = Pharmacokinetic analysis in rats; format: in vivo, Sprague-Dawley rats; details: equivalent to 1 mg/kg doxorubicin; for half-life: Sprague-Dawley, rat, plasma, iv, 1 mg/kg
Protocol: Blood samples were collected at 5, 15, 30, 60, and 90 min intervals and then again at 2, 4, 8, 12, 24, 48, 72, 96, and 144 h. The blood samples were stabilized with sodium citrate and then cryocentrifuged at 2000×g for 15 min to obtain plasma. 200 μl of the plasma sample was placed in a 96-well black microplate and the fluorescence of doxorubicin was measured at 485/590 nm. The reference was fresh plasma and the fluorescence was measured in the same manner.

[5] = system: tumor cell lines with KRAS variant genotype; experiment: Concentration-dependent cytotoxicity by MTT analysis; format: cell-based; details: KRAS variant cells
[6] = system: cell lines with KRAS variant genotype (Mia-paca2, AsPC1, MDA-MB231, CT26, HCT116, H2122, A549); experiment: Tumor growth in mice inoculated with wild-type KRAS or KRAS variant tumor cells; format: in vivo, C3H/HeN mice; details: intravenous every 3 days, equivalent to 1, 5 and 10 mg/kg doxorubicin, 1 month
Protocol: The maleimide-KGDEVD-PABC-doxorubicin was administered intravenously every 3 days at doses equivalent to 1, 5, and 10 mg/kg of doxorubicin, respectively, and then observed for 1 month. […] Therefore, the prodrug conjugate according to one embodiment of the present invention is not expected to have significant side effects.

[7] = system: tumor cell lines with wild-type KRAS genotype; experiment: Concentration-dependent cytotoxicity by MTT analysis; format: cell-based; details: wild-type KRAS cells, concentrations up to 100 μM
[8] = system: tumor cell lines with PTEN protein loss genotype; experiment: as above; format: cell-based; details: PTEN protein loss cells, up to 100 μM
[9] = system: tumor cells having KRAS variant genotype (Mia-paca2); experiment: Tumor inhibition compared with Aldoxorubicin in mice implanted with KRAS variant tumor cells; format: in vivo, C3H/HeN mice; details: Mia-paca2, intravenous every 3 days, equivalent to 5 mg/kg doxorubicin, 1 month
Text: Using C3H/HeN mice implanted with tumor cells having KRAS variant genotype (Mia-paca2), the tumor inhibition effect of the maleimide-KGDEVD-PABC-doxorubicin (MPD1) synthesized in Example 1 of the present invention, the maleimide-KGDVED-PABC-doxorubicin (EMC-KGDVED-DOX) with different peptide sequence, and Aldoxorubicin, a conventional doxorubicin-based anticancer drug which is linked to a maleimide so that it binds to albumin in plasma upon administration and increases half-life, were compared (FIGS. 19 and 20).

[10] = target: T2, human serum albumin (HSA) (Homo sapiens, UniProt P02768); experiment: Conjugate binding with human serum albumin, HPLC analysis
T2 construct: purchased Sigma-Aldrich
Protocol: The maleimide-KGDEVD-PABC-doxorubicin synthesized in Example 1 was then added to a concentration of 100 μM and incubated at room temperature. The samples were analyzed by analytical HPLC (FIG. 1). (KGDEVD corresponds to SEQ ID NO: 32)

[11] = system: cancer cell groups with PTEN protein loss genotype (H1299, MDA-MB436); experiment: Tumor growth in mice inoculated with PTEN protein loss tumor cells; format: in vivo, C3H/HeN mice; details: intravenous every 3 days, equivalent to 1, 5 and 10 mg/kg doxorubicin, 1 month; compared to the control group
Protocol: The maleimide-KGDEVD-PABC-doxorubicin was administered intravenously every 3 days at concentrations equivalent to 1, 5, and 10 mg/kg of doxorubicin, respectively, and observed for 1 month.

[12] = target: HSA-Maleimide-KGDVED-PABC-doxorubicin, P02768
[13] = target: HSA-maleimide-KGDEVD-PABC-doxorubicin, P02768

In the case of `COc1cccc2c1C(=O)c1c(O)c3c(c(O)c1C2=O)C[C@@](O)(C(=O)CO)C[C@@H]3O[C@H]1C[C@H](NC(=O)OCc2ccc(NC(=O)[C@H](CC(=O)O)NC(=O)[C@@H](NC(=O)[C@H](CCC(=O)O)NC(=O)[C@H](CC(=O)O)NC(=O)CNC(=O)[C@H](CCCCN)NC(C)=O)C(C)C)cc2)[C@H](O)[C@H](C)O1` [AcKGDEVD-PABC-doxorubicin, Ac-Lys-Gly-Asp-Glu-Val-Asp-PABC-DOX, reference compound] (Ac-KGDEVD[PABC]-{Doxorubicin(3'-N)}), the “time until plasma concentration decreased below the detection limit of 5 ng/ml” value [1] is reported as ≤ 6 h.

For `COc1cccc2c1C(=O)c1c(O)c3c(c(O)c1C2=O)C[C@@](O)(C(=O)CO)C[C@@H]3O[C@H]1C[C@H](NC(=O)OCc2ccc(NC(=O)[C@H](CC(=O)O)NC(=O)[C@@H](NC(=O)[C@H](CCC(=O)O)NC(=O)[C@H](CC(=O)O)NC(=O)CNC(=O)[C@H](CCCCNC(=O)CCCCCN3C(=O)C=CC3=O)NC(C)=O)C(C)C)cc2)[C@H](O)[C@H](C)O1` [maleimide-KGDEVD-PABC-doxorubicin, Ac-Lys(EMC)-Gly-Asp-Glu-Val-Asp-PABC-DOX] (Ac-K(Hexanoyl(6-maleimido))GDEVD[PABC]-{Doxorubicin(3'-N)}), the “time to complete conjugation binding with HSA in human plasma” value ([2]; human plasma, conjugate 100 μM, room temperature) was 3 min, the “binding to plasma pre-incubated with 4-maleimidobutyric acid” value ([2]; plasma pre-incubated with 4-maleimidobutyric acid, after 1 h) was “no, binding” and the “IC50 values based on doxorubicin” value [3] was “lower IC50 values”. For the same molecule, the half-life ([4]; read-out: half-life) was > 19 h, the half-life ([4]; read-out: terminal half-life) was 0.5 h and the “time remained active in plasma after administration” value ([4]; intravenous) was 6 days. For the same molecule, the “time until plasma concentrations decreased below the detection limit of 5 ng/ml” value ([4]; intravenous) was ≤ 4 h, the IC50 [5] was “lower” and the tumor growth inhibition ([6]; KRAS variant versus wild-type KRAS tumors) was “better tumor growth inhibition than those with wild-type KRAS genotype”. The “effect on body weight of the experimental animals” value ([6]; wild-type KRAS and KRAS variant tumors) was “none of the drugs had a significant effect on the body weight”, the half-life ([1]; cynomolgus monkey, in vivo, read-out: terminal half-life) was > 106 h and the “time detectable in plasma after administration” value [1] was 7 days. The IC50 [7] was “generally higher”, the “IC50 values based on doxorubicin” value [8] was “higher IC50 values” and the “in vivo anticancer effects (tumor inhibition)” value [9] was “anticancer effects similar to those of Aldoxorubicin”. For the same molecule, the “time to complete conjugate binding with HSA” value ([10]; HSA 700 μM in PBS, conjugate 100 μM, room temperature) was 3 min, the “binding to HSA pre-incubated with 4-maleimidobutyric acid” value ([10]; HSA pre-incubated with 4-maleimidobutyric acid, after 1 h) was “no binding” and the tumor inhibition [11] was “greater tumor inhibition”.

B1: recombinant human caspase-3 (protein)
chain: SGISLDNSYKMDYPEMGLCIIINNKNFHKSTGMTSRSGTDVDAANLRETFRNLKYEVRNKNDLTREEIVELMRDVSKEDHSKRSSFVCVLLSHGEEGIIFGTNGPVDLKKITNFFRGDRCRSLTGKPKLFIIQACRGTELDCGIETDSGVDDDMACHKIPVEADFLYAYSTAPGYYSWRNSKDGSWFIQSLCAMLKQYADKLEFMHILTRVNRKVATEFESFSFDATFHAKKQIPCIVSMLTKELYFYH
In the case of B1, the “cleavage and release of doxorubicin, HPLC” value [12] is reported as “no cleavage was observed for the HSA-Maleimide-KGDVED-PABC-doxorubicin conjugate with a different peptide amino acid sequence” and the “cleavage and release of doxorubicin, HPLC” value [13] is reported as “Doxorubicin was cleaved and isolated from the HSA-maleimide-KGDEVD-PABC-doxorubicin conjugate within 1 h”.
